Test results taken from US11053190B2, “Alpha-aminoamide derivative compound and pharmaceutical composition comprising same” (NEUROBIOGEN CO., LTD., priority 2014, dated 2021).
Read-outs that look alike come from different tables or passages of the source.

Tests used:
[1] = biological target: T1, human-derived monoamine oxidase B (Homo sapiens, UniProt P27338); assay: Effect of inhibiting activity of monoamine oxidase B (MAO-B assay); type: biochemical; details: Amplex Red, benzylamine substrate
T1 sequence (P27338 1-520): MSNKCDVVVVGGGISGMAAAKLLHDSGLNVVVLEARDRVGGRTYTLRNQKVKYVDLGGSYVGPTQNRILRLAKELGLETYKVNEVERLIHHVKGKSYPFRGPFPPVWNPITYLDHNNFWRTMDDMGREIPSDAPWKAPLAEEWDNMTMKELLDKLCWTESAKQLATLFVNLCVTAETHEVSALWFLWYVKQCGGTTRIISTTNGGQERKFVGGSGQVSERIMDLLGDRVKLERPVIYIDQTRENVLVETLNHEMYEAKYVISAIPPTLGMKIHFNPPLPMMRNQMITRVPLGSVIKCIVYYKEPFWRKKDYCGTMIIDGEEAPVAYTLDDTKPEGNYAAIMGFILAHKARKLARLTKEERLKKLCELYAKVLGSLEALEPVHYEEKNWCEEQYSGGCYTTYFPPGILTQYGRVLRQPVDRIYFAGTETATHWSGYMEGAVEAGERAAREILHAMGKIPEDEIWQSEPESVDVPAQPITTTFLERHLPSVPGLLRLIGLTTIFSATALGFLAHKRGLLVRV

MAO-A = biological target: T2, MAO-A (Homo sapiens, UniProt P21397); assay: MAO-A inhibition (Table 1); type: biochemical
T2 sequence (P21397 1-527): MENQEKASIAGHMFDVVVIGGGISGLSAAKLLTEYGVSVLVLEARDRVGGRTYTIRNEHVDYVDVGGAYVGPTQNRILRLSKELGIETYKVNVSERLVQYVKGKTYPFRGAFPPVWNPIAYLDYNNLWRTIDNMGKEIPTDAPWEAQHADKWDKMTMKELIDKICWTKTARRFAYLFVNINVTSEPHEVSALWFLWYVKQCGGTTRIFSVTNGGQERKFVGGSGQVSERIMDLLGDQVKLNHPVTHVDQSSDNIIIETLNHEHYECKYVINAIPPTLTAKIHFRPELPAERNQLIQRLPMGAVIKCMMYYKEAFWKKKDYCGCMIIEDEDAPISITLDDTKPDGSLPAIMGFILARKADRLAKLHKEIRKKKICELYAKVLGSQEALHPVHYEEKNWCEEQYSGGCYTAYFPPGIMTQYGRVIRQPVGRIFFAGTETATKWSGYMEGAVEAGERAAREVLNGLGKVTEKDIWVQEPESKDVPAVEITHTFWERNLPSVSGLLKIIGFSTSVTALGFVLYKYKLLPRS

[2] = system: dopaminergic neurons in the substantia nigra and the corpus striatum; assay: MPTP mouse model of Parkinson's disease, TH (tyrosine hydroxylase) immunohistochemistry; type: in vivo; details: for dopaminergic neuron survivability (TH expression), pre-treatment: from one day before MPTP 20 mg/kg i.p., FIG. 2a
[3] = system: DGGCs (dentate gyrus granule cells) of the hippocampus; assay: Inhibition of channel excitability, electrophysiology; type: cell-based; details: FIG. 4
Text: In order to investigate the channel inhibitory effect, inhibition of channel excitability was investigated electrophysiologically using DGGCs (dentate gyrus granule cells) of the hippocampus.

APP/PS1 mouse [4] = details: Jo et al., Nature Medicine 2014, cited from earlier work
[5] = biological target: T1, human-derived monoamine oxidase B; assay: Confirmation of reversible inhibitory effect (washing in centrifugal filter); type: biochemical
APP/PS1 mouse [6] = assay: APP/PS1 mouse model of Alzheimer's disease, spike probability of dentate gyrus granule cells; type: in vivo; details: 2 weeks in drinking water
obesity model mouse = assay: HFD (high-fat diet) mouse model of obesity; type: in vivo
Protocol: 7-week-old mice were divided into 2 groups and were given a normal diet (white, chow) and a high-fat diet (blue, HFD), respectively, for 8 weeks.
The total calorie provided to the normal diet mice and the high-fat diet mice was set to be equal. The average body weight of the normal diet group was measured to be […] at 8 weeks, with about 20% increase from the initial weight of […]. In contrast, the average body weight of the high-fat diet almost doubled to about […].
In addition to the increase in reactive astrocytes, overproduction of γ-aminobutyric acid (GABA) was also detected.

[7] = 10 mg/kg oral, treated from day 3 after MPTP, FIG. 2b
[8] = administration for 30 days, FIG. 2c

Question: Which results are given for `COc1ccc(-c2ccc(CN[C@@H](C)C(N)=O)cc2)cc1` [Example 13, (S)-2-(((4′-methoxybiphenyl-4-yl)methyl)amino)propanamide methanesulfonate]?
Answer: IC50 [1]: 1.06 µM; IC50 (MAO-A): > 100 µM

Question: Which IC50 [1] does the source give for `C[C@H](NCc1ccc(-c2ccccc2F)cc1)C(N)=O` [Example 1, (S)-2-(((2′-fluorobiphenyl-4-yl)methyl)amino) propanamide methanesulfonate] here?
Answer: The IC50 was greater than 10 µM.

Question: With `C[C@H](NCc1ccc(-c2ccccc2Cl)cc1)C(N)=O` [Example 4, (S)-2-(((2′-chlorobiphenyl-4-yl)methyl)amino) propanamide methanesulfonate] as the compound, how does the IC50 [1] read?
Answer: The IC50 was greater than 10 µM.

Question: And the IC50 (MAO-A)?
Answer: Its IC50 is greater than 100 µM.

Question: For `C[C@H](NCc1ccc(OCc2cccc(F)c2)cc1)C(N)=O` [S-Safinamide, Safinamide, reference compound], which “dopaminergic neuron survivability (TH expression), pre-treatment” value ([2]; 10 mg/kg oral) is on record?
Answer: The value was “dopaminergic neuron survivability comparable to that of the control group”.

Question: And the “death of dopaminergic neurons, post-treatment” value [2, 7]?
Answer: The value was “significantly decreased death of the neurons”.

Question: And the “protection of dopaminergic neurons in the corpus striatum, 30-day administration” value [2, 8]?
Answer: The value was “slightly lower efficacy”.

Question: And the inhibition at 10 µM ([3]; 10 μM, read-out: excitability inhibitory effect)?
Answer: The inhibition at 10 µM was roughly 40%.

Question: What about the “efficacy in the Alzheimer's disease model after 2 weeks” value (APP/PS1 mouse [4]) of the same compound?
Answer: Its value is “maintains excellent efficacy”.

Question: Which IC50 [1] does the source give for `C[C@H](NCc1ccc(-c2ccc(Cl)cc2)cc1)C(N)=O` [Example 6, (S)-2-(((4′-chlorobiphenyl-4-yl)methyl)amino) propanamide methanesulfonate] here?
Answer: The IC50 was 0.416 µM.

Question: And the IC50 (MAO-A)?
Answer: The IC50 was greater than 100 µM.

Question: What does the source list for `C[C@@H](NCc1ccc(-c2cccc(F)c2)cc1)C(N)=O` [Example 14, methanesulfonate]?
Answer: IC50 [1]: > 10 µM; IC50 (MAO-A): > 100 µM

Question: With `C[C@H](NCc1ccc(-c2cccc(F)c2)cc1)C(N)=O` [Example 2, (S)-2-(((3′-fluorobiphenyl-4-yl)methyl)amino) propanamide methanesulfonate] as the compound, how does the IC50 [1] read?
Answer: Its IC50 is greater than 10 µM.

Question: For `CC(C)C[C@@H](NCc1ccc(-c2ccc(C(F)(F)F)cc2)cc1)C(N)=O` [Example 18, (R)-4-methyl-2-(((4′-trifluoromethylbiphenyl-4-yl)methyl)amino)pentanamide methanesulfonate], which IC50 [1] is on record?
Answer: Its IC50 is 5.3 µM.

Question: What about the IC50 (MAO-A) of the same compound?
Answer: Its IC50 is greater than 100 µM.

Question: For `C[C@H](NCc1ccc(-c2cccc(Cl)c2)cc1)C(N)=O` [Example 5, (S)-2-(((3′-chlorobiphenyl-4-yl)methyl)amino) propanamide methanesulfonate], which IC50 [1] is on record?
Answer: Its IC50 is 0.442 µM.

Question: And the IC50 (MAO-A)?
Answer: Its IC50 is greater than 100 µM.

Question: With `C[C@H](NCc1ccc(-c2ccc(F)cc2)cc1)C(N)=O` [Example 3, (S)-2-(((4′-fluorobiphenyl-4-yl)methyl)amino) propanamide methanesulfonate] as the compound, how does the IC50 [1] read?
Answer: Its IC50 is greater than 10 µM.

Question: Which IC50 [1] does the source give for `C[C@H](NCc1ccc(-c2cccc(OC(F)(F)F)c2)cc1)C(N)=O` [Example 10, (S)-2-(((3′-trifluoromethoxybiphenyl-4-yl)methyl)amino)propanamide methanesulfonate] here?
Answer: Its IC50 is 0.216 µM.

Question: What about the IC50 (MAO-A) of the same compound?
Answer: The IC50 was greater than 100 µM.

Question: With `C[C@@H](NCc1ccc(-c2ccc(C(F)(F)F)cc2)cc1)C(N)=O` [Example 15, (R)-2-(((4′-trifluoromethylbiphenyl-4-yl)methyl)amino)propanamide methanesulfonate] as the compound, how does the IC50 (MAO-A) read?
Answer: The IC50 was greater than 100 µM.

Question: With `COc1cccc(-c2ccc(CN[C@@H](C)C(N)=O)cc2)c1` [Example 12, (S)-2-(((3′-methoxybiphenyl-4-yl)methyl)amino)propanamide methanesulfonate] as the compound, how does the IC50 [1] read?
Answer: Its IC50 is 3.33 µM.

Question: What about the IC50 (MAO-A) of the same compound?
Answer: The IC50 was greater than 100 µM.

Question: What does the source list for `C[C@H](NCc1ccc(-c2ccc(C(F)(F)F)cc2)cc1)C(N)=O` [Example 9, (S)-2-(((4′-trifluoromethylbiphenyl-4-yl)methyl)amino) propanamide methanesulfonate]?
Answer: Reversibility ([5]; 1 μM): Reversible; Recovered MAO-B activity ([5]; 1 μM, after washing): >85%; inhibition at 1 µM ([5]; after centrifugal filter and washing with buffer (B), read-out: B. MAO-B inhibition effect): < 15%; inhibition at 1 µM ([5]; without washing (A), read-out: A. MAO-B inhibition effect): 82%; efficacy (spike probability) compared with safinamide (APP/PS1 mouse [6]): higher than that of safinamide; spike probability depending on stimulus intensity (APP/PS1 mouse [6]; FIG. 3b): superior efficacy was observed; IC50 (MAO-A): > 500 µM; dopaminergic neuron survivability (TH expression), pre-treatment ([2]; 10 mg/kg oral): dopaminergic neuron survivability comparable to that of the control group; death of dopaminergic neurons, post-treatment [2, 7]: significantly decreased death of the neurons; recovery of dopaminergic neurons in the substantia nigra, post-treatment ([2]; 10 mg/kg oral, treated from day 3 after MPTP, substantia nigra, FIG. 2b): recovered the dopaminergic neurons in the substantia nigra to a level comparable to that of the control group not treated with MPTP; protection of dopaminergic neurons in the corpus striatum, 30-day administration [2, 8]: protected dopaminergic neurons to a level comparable to that of the control group not treated with MPTP; protection of dopaminergic neurons in the substantia nigra, 30-day administration ([2]; administration for 30 days, substantia nigra, FIG. 2c): protected neurons similarly to the control group; overall efficacy in the three tests on the MPTP mouse model ([2]; compared with selegiline and safinamide): superior efficacy as compared to selegiline and safinamide; body weight increase due to high-fat diet (obesity model mouse; 10 mg/kg/day and 100 mg/kg/day groups, FIG. 8): inhibited body weight increase due to the intake of the high-fat diet in a concentration-dependent manner; amount of food intake (obesity model mouse; high-fat diet mice, FIG. 8): no difference in the amount of food intake; GFAP (biomarker for reactive astrocytes) in the arcuate nucleus (obesity model mouse; high-fat diet mice, FIG. 9): Remarkable decrease in GFAP; overproduction of GABA in the arcuate nucleus (obesity model mouse; high-fat diet mice, FIG. 9): effective inhibition of the overproduction of GABA; excitability inhibitory effect ([3]; 10 μM): almost no inhibitory effect; excitability inhibitory effect ([3]; 50 μM): lower inhibitory effect than safinamide

Question: With `C#CCN(C)[C@H](C)Cc1ccccc1` [Selegiline] as the compound, how does the “efficacy in the Alzheimer's disease model after 2 weeks” value (APP/PS1 mouse [4]) read?
Answer: The value was “the efficacy decreases greatly”.

Question: And the “efficacy in the Alzheimer's disease model after 4 weeks” value (APP/PS1 mouse [4]; after 4 weeks)?
Answer: Its value is “no efficacy is observed”.

Question: What about the “efficacy in the Alzheimer's disease model, initially” value (APP/PS1 mouse [4]; initial) of the same compound?
Answer: Its value is “excellent efficacy initially”.

Question: With `C[C@H](NCc1ccc(-c2ccc(OC(F)(F)F)cc2)cc1)C(N)=O` [Example 11, (S)-2-(((4′-trifluoromethoxybiphenyl-4-yl)methyl)amino)propanamide methanesulfonate] as the compound, how does the IC50 [1] read?
Answer: The IC50 was 0.098 µM.

Question: What about the IC50 (MAO-A) of the same compound?
Answer: The IC50 was greater than 100 µM.

Question: For `CC(C)[C@@H](NCc1ccc(-c2ccc(C(F)(F)F)cc2)cc1)C(N)=O` [Example 17, (R)-3-methyl-2-(((4′-trifluoromethylbiphenyl-4-yl)methyl)amino)butanamide methanesulfonate], which IC50 [1] is on record?
Answer: Its IC50 is 4.07 µM.

Question: And the IC50 (MAO-A)?
Answer: The IC50 was greater than 100 µM.

Question: Which IC50 [1] does the source give for `NC(=O)CNCc1ccc(-c2ccc(C(F)(F)F)cc2)cc1` [Example 16, (R)-2-(((4′-trifluoromethylbiphenyl-4-yl)methyl)amino)acetamide methanesulfonate] here?
Answer: Its IC50 is 0.126 µM.

Question: What about the IC50 (MAO-A) of the same compound?
Answer: Its IC50 is greater than 100 µM.
